Data from patent publication US4845095A, “4-phenylpiperidine compounds and their use” (A/S Ferrosan, priority 1987, dated 1989).

Test system: acetic acid induced writhing syndrome
Test: acetic acid induced writhing syndrome in mice
Assay type: in vivo, mice (NMRI)
Details: for ED50: Mus musculus, sc, dose giving 50 per cent protection against writhings, s.c. 30 minutes before acetic acid 0.5 per cent i.p., writhings counted 5-15 minutes after; for inhibition (ED50 table): s.c. 30 minutes before acetic acid
Procedure: The pharmaceutical properties of the compounds of the invention can be illustrated by determining their capability to antagonize the acetic acid induced writhing syndrome in mice.
In mice i.p. injection of acetic acid induces a writhing syndrome which is antagonized by analgesics (Siegmund et al., Proc. Soc. exp. Biol. 95, 729-731 (1957); Eckhardt et al., Proc. Soc. exp. Biol. 98, 186-188 (1958).
Test procedure: Acetic acid 0.5 per cent is injected i.p. (0.15 ml/10g body weight) to 6 mice (NMRI, either sex weighing 20-25 g) pretreated with physiological saline (controls) and to 6 mice pretreated with test substance. In the controls acetic acid induces a syndrome characterized by contraction of abdomen, turning of trunk and extension of hind limbs. Saline and test substances are administered s.c. 30 minutes before acetic acid. The number of writhings is counted 5-15 minutes after injection of acetic acid. The activity is expressed as per cent protection=
(Control drug)/Control×100
The effect of active substances is evaluated by a dose response curve, log dose on the abscissa, and per cent protection on the ordinate. The potency is expressed as the dose (ED50) in mg/kg giving 50 per cent protection against writhings. Test results obtained by testing some compounds of the invention will appear from the following table.

Row | Structure (SMILES) | ED50 [mg/kg] | also measured
1 | COCc1noc(C2(c3ccccc3)CCN(C)CC2)n1.Cl [Compound 4, 1-methyl-4-(3-methoxymethyl-1,2,4-oxadiazol-5-yl)-4-phenylpiperidine hydrochloride] | 3 | –
2 | Cc1noc(C2(c3ccccc3)CCN(C)CC2)n1.Cl [Compound 1, 1-Methyl-4-(3-methyl-1,2,4-oxadiazol-5-yl)-4-phenylpiperidine hydrochloride] | 5.7 | –
3 | O=C(O)C(=O)O.c1ccc(OCCCCN2CCC(c3ccccc3)(c3nc(C4CC4)no3)CC2)cc1 [Compound 16, 4-(3-cyclopropyl-1,2,4-oxadiazol-5-yl)-1-(4-phenoxybutyl)-4-phenylpiperidine oxalate] | – | inhibition (ED50 table) (at 10 (table head mg/kg)): 34%
4 | c1ccc(C2(c3nc(C4CC4)no3)CCNCC2)cc1 [Compound 13, 4-(3-cyclopropyl-1,2,4-oxadiazol-5-yl)-4-phenylpiperidine] | 2.9 | –
5 | CON=CC1(c2ccccc2)CCN(C)CC1.O=C(O)C(=O)O [Compound 10, 4-Methoxyiminomethyl-1-methyl-4-phenyl-piperidine oxalate] | 3.2 | –
6 | CN1CCC(c2ccccc2)(c2nc(C3CC3)no2)CC1.Cl [Compound 2, 1-methyl-4-(3-cyclopropyl-1,2,4-oxadiazol-5-yl)-4-phenylpiperidine hydrochloride] | 7.6 | –
7 | CN1CCC(c2ccccc2)(c2nc(-c3ccccc3)no2)CC1 [Compound 3, 1-methyl-4-(3-phenyl-1,2,4-oxadiazol-5-yl)-4-phenylpiperidine] | – | inhibition (ED50 table) (at 3 (table head mg/kg)): 41%
8 | CCOC(=O)C1(c2ccccc2)CCN(C)CC1 [Pethidine, reference compound] | 9.25 | –
